Marks after values point to notes of the source that are not given here. Values belong to the compound of their own block, whether it stands above or below them.
What was measured:
female rats = test: Plasma metabolite profiling (GC-MS, LC-MS, SPE-LC-MS) in female rats dosed once daily over 28 days (OECD 407); type: in vivo, rat; conditions: for 3-O-Methylsphingosine (d18:1), ratio versus control / 5-O-Methylsphingosine (d18:1), ratio versus control / 16-Methylheptadecanoic acid, ratio versus control / 17-Methyloctadecanoic acid, ratio versus control / Arachidonic acid (C20:cis[5,8,11,14]4), ratio versus control / Behenic acid (C22:0), ratio versus control / Cholesterol, ratio versus control / Choline plasmalogen No 03, ratio versus control / Docosahexaenoic acid (C22:cis[4,7,10,13,16,19]6), ratio versus control / Galactose, lipid fraction, ratio versus control / Lignoceric acid (C24:0), ratio versus control / Lysophosphatidylcholine (C17:0), ratio versus control / Malate, ratio versus control / Nervonic acid (C24:cis[15]1), ratio versus control / Sphingomyelin (d18:2, C16:0), ratio versus control / Stearic acid (C18:0), ratio versus control / Tricosanoic acid (C23:0), ratio versus control / Uric acid, ratio versus control / alpha-Tocopherol, ratio versus control / erythro-Sphingosine (d18:1), ratio versus control / myo-Inositol, lipid fraction, ratio versus control / myo-Inositol-2-phosphate, lipid fraction, ratio versus control / threo-Sphingosine (d18:1), ratio versus control: female rats, plasma, low dose
Protocol: Each dose group in the studies consisted of five rats per sex. Additional groups of each 5 male and female animals served as controls. […] All animals of the animal population were kept under the same constant temperature (20-24±3° C.) and the same constant humidity (30-70%). The animals of the animal population were fed ad libitum. The food to be used was essentially free of chemical or microbial contaminants. Drinking water was also offered ad libitum. Accordingly, the water was free of chemical and microbial contaminants as laid down in the European Drinking Water Directive 98/83/EG. The illumination period was 12 hours light followed by 12 hours darkness (12 hours light, from 6:00 to 18:00, and 12 hours darkness, from 18:00 to 6:00). […] The test substances (compounds) in the Tables 1 to 17 below were dosed and administered as described in the Table 18.
In the morning of day 7, 14, and 28, blood was taken from the retroorbital venous plexus from fasted anaesthetized animals. From each animal, 1 ml of blood was collected with EDTA as anticoagulant. The samples were centrifuged for generation of plasma. All plasma samples were covered with a N2 atmosphere and then stored at −80° C. until analysis.
For mass spectrometry-based metabolite profiling analyses plasma samples were extracted and a polar and a non-polar (lipid) fraction was obtained. For GC-MS analysis, the non-polar fraction was treated with methanol under acidic conditions to yield the fatty acid methyl esters. Both fractions were further derivatised with O-methyl-hydroxyamine hydrochloride and pyridine to convert Oxogroups to O-methyloximes and subsequently with a silylating agent before analysis. In LC-MS analysis, both fractions were reconstituted in appropriate solvent mixtures. HPLC was performed by gradient elution on reversed phase separation columns. Mass spectrometric detection which allows target and high sensitivity MRM (Multiple Reaction Monitoring) profiling in parallel to a full screen analysis was applied as described in WO2003073464.
Steroids and their metabolites were measured by online SPE-LC-MS (Solid phase extraction-LC-MS).
Following comprehensive analytical validation steps, the data for each analyte were normalized against data from pool samples. These samples were run in parallel through the whole process to account for process variability. The significance of treatment group values specific for sex, treatmentduration and metabolite was determined by comparing means of the treated groups to the means of the respective untreated control groups using WELCH-test and quantified with treatment ratios versus control and p-values.
The identification of the most important biomarkers per toxicity pattern was done by a ranking of the analytes in the tables below. Therefore the metabolic changes in reference treatments of a given pattern (shown in the table) were compared with changes of the same metabolite in other unrelated treatments. […] The maximum absolute value of the respective TVALUE was taken to indicate the most important metabolite for the pattern.

male rats = test: Plasma metabolite profiling (GC-MS, LC-MS, SPE-LC-MS) in male rats dosed once daily over 28 days (OECD 407); type: in vivo, rat; conditions: male rats, plasma, high dose, day 7
Outline: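 Polar and lipid fractions profiled by GC-MS and LC-MS/MRM, steroids by online SPE-LC-MS; pool-normalized data compared to controls by Welch test as treatment ratios and p-values.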

3-O-Methylsphingosine (d18:1), ratio versus control (female rats; day 7): 0.25 *
5-O-Methylsphingosine (d18:1), ratio versus control (female rats; day 7): 0.27 *
16-Methylheptadecanoic acid, ratio versus control (female rats; day 7): 0.64 *
17-Methyloctadecanoic acid, ratio versus control (female rats; day 7): 0.7 *
Arachidonic acid (C20:cis[5,8,11,14]4), ratio versus control (female rats; day 7): 0.59 *
Behenic acid (C22:0), ratio versus control (female rats; day 7): 0.45 *
Cholesterol, ratio versus control (female rats; day 7): 0.55 *
Choline plasmalogen No 03, ratio versus control (female rats; day 7): 0.74 *
Docosahexaenoic acid (C22:cis[4,7,10,13,16,19]6), ratio versus control (female rats; day 7): 0.52 *
Galactose, lipid fraction, ratio versus control (female rats; day 7): 0.51 *
Lignoceric acid (C24:0), ratio versus control (female rats; day 7): 0.45 *
Lysophosphatidylcholine (C17:0), ratio versus control (female rats; day 7): 0.8 *
Malate, ratio versus control (female rats; day 7): 0.98 *
Nervonic acid (C24:cis[15]1), ratio versus control (female rats; day 7): 0.45 *
Sphingomyelin (d18:2, C16:0), ratio versus control (female rats; day 7): 0.55 *
Stearic acid (C18:0), ratio versus control (female rats; day 7): 0.63 *
Tricosanoic acid (C23:0), ratio versus control (female rats; day 7): 0.32 *
Uric acid, ratio versus control (female rats; day 7): 0.73 *
alpha-Tocopherol, ratio versus control (female rats; day 7): 0.5 *
erythro-Sphingosine (d18:1), ratio versus control (female rats; day 7): 0.29 *
myo-Inositol, lipid fraction, ratio versus control (female rats; day 7): 0.62 *
myo-Inositol-2-phosphate, lipid fraction, ratio versus control (female rats; day 7): 0.48 *
threo-Sphingosine (d18:1), ratio versus control (female rats; day 7): 0.33 *
3-O-Methylsphingosine (d18:1), ratio versus control (female rats; day 14): 0.55 *
5-O-Methylsphingosine (d18:1), ratio versus control (female rats; day 14): 0.58 *
16-Methylheptadecanoic acid, ratio versus control (female rats; day 14): 0.72 *
17-Methyloctadecanoic acid, ratio versus control (female rats; day 14): 0.73 *
Arachidonic acid (C20:cis[5,8,11,14]4), ratio versus control (female rats; day 14): 0.66 *
Behenic acid (C22:0), ratio versus control (female rats; day 14): 0.52 *
Cholesterol, ratio versus control (female rats; day 14): 0.66 *
Choline plasmalogen No 03, ratio versus control (female rats; day 14): 0.8 *
Docosahexaenoic acid (C22:cis[4,7,10,13,16,19]6), ratio versus control (female rats; day 14): 0.71 *
Galactose, lipid fraction, ratio versus control (female rats; day 14): 0.66 *
Lignoceric acid (C24:0), ratio versus control (female rats; day 14): 0.53 *
Lysophosphatidylcholine (C17:0), ratio versus control (female rats; day 14): 0.9 *
Malate, ratio versus control (female rats; day 14): 0.75 *
Nervonic acid (C24:cis[15]1), ratio versus control (female rats; day 14): 0.7 *
Sphingomyelin (d18:2, C16:0), ratio versus control (female rats; day 14): 0.74 *
Stearic acid (C18:0), ratio versus control (female rats; day 14): 0.83 *
Tricosanoic acid (C23:0), ratio versus control (female rats; day 14): 0.65 *
Uric acid, ratio versus control (female rats; day 14): 0.72 *
alpha-Tocopherol, ratio versus control (female rats; day 14): 0.65 *
erythro-Sphingosine (d18:1), ratio versus control (female rats; day 14): 0.61 *
myo-Inositol, lipid fraction, ratio versus control (female rats; day 14): 0.76 *
myo-Inositol-2-phosphate, lipid fraction, ratio versus control (female rats; day 14): 0.66^
threo-Sphingosine (d18:1), ratio versus control (female rats; day 14): 0.65 *
3-O-Methylsphingosine (d18:1), ratio versus control (female rats; day 28): 0.44 *
5-O-Methylsphingosine (d18:1), ratio versus control (female rats; day 28): 0.47 *
16-Methylheptadecanoic acid, ratio versus control (female rats; day 28): 0.69 *
17-Methyloctadecanoic acid, ratio versus control (female rats; day 28): 0.86 *
Arachidonic acid (C20:cis[5,8,11,14]4), ratio versus control (female rats; day 28): 0.46 *
Behenic acid (C22:0), ratio versus control (female rats; day 28): 0.57 *
Cholesterol, ratio versus control (female rats; day 28): 0.43 *
Choline plasmalogen No 03, ratio versus control (female rats; day 28): 0.57 *
Docosahexaenoic acid (C22:cis[4,7,10,13,16,19]6), ratio versus control (female rats; day 28): 0.43 *
Galactose, lipid fraction, ratio versus control (female rats; day 28): 0.62 *
Lignoceric acid (C24:0), ratio versus control (female rats; day 28): 0.44 *
Lysophosphatidylcholine (C17:0), ratio versus control (female rats; day 28): 0.81 *
Malate, ratio versus control (female rats; day 28): 0.66 *
Nervonic acid (C24:cis[15]1), ratio versus control (female rats; day 28): 0.43 *
Sphingomyelin (d18:2, C16:0), ratio versus control (female rats; day 28): 0.62 *
Stearic acid (C18:0), ratio versus control (female rats; day 28): 0.66 *
Tricosanoic acid (C23:0), ratio versus control (female rats; day 28): 0.42 *
Uric acid, ratio versus control (female rats; day 28): 0.57 *
alpha-Tocopherol, ratio versus control (female rats; day 28): 0.46 *
erythro-Sphingosine (d18:1), ratio versus control (female rats; day 28): 0.51 *
myo-Inositol, lipid fraction, ratio versus control (female rats; day 28): 0.75 *
myo-Inositol-2-phosphate, lipid fraction, ratio versus control (female rats; day 28): 0.54 *
threo-Sphingosine (d18:1), ratio versus control (female rats; day 28): 0.57 *
Structure (SMILES): O=c1c(-c2ccc(O)cc2)coc2cc(O)cc(O)c12 [Genistein]

Cholesterol (female rats; f7, high dose, Table 14a): 0.17 *
Choline plasmalogen No 02 (female rats; f7, high dose, Table 14a): 0.3 *
Lignoceric acid (C24:0) (female rats; f7, high dose, Table 14a): 0.27^
Sphingomyelin (d18:1, C16:0) (female rats; f7, high dose, Table 14a): 0.12 *
Sphingomyelin (d18:2, C16:0) (female rats; f7, high dose, Table 14a): 0.19 *
erythro-Sphingosine (d18:1) (female rats; f7, high dose, Table 14a): 0.03 *
Alanine, ratio versus control (male rats): 0.88 *
Androstenedione, ratio versus control (male rats): 0.42 *
Cholesterol, ratio versus control (male rats): 0.28 *
Glycine, ratio versus control (male rats): 0.86 *
Heptadecanoic acid (C17:0), ratio versus control (male rats): 0.56 *
Testosterone, ratio versus control (male rats): 0.59 *
Threonine, ratio versus control (male rats): 0.88 *
Uric acid, ratio versus control (male rats): 0.7 *
alpha-Tocopherol, ratio versus control (male rats): 0.32 *
Structure (SMILES): C#C[C@]1(OC(C)=O)CC[C@H]2[C@@H]3CCC4=CC(=O)CC[C@@H]4[C@H]3CC[C@@]21C [Norethindrone acetate]

Reference: US20150010928A1, “MEANS AND METHODS FOR ASSESSING AN ENDOCRINE DISEASE OR DISORDER” (priority 2012, published 2015)
